Source: patent US10000500B2 (PROMEGA CORPORATION, priority 2016, dated 2018)

Tests used:
Type in all cases: biochemical
NANOLUC® Luciferase [1] = target: T1, NANOLUC® Luciferase (Oplophorus gracilirostris, UniProt Q9GV45, A31E/A60N/A81I/F95D/I117V/K70R/L54V/L99Q/M102K/N193R/P142E/Q151K/Q38R/Q45L/V71I/Y165I); experiment: Luminescence assay with purified NANOLUC luciferase (Example 7); details: value marked (Autolum): autoluminescence
NANOLUC® Luciferase [2] = target: T1, NANOLUC® Luciferase; experiment: Enzyme titration with NanoLuc luciferase (Example 9B); details: FIG. 2B
Procedure: (§1) Renilla luciferase and NanoLuc Lucifersase were diluted to a concentration of 4 ug/ml (4 ng/uL) in OptiMEM+0.1% FBS. 10× serial dilutions of the luciferases were then prepared in OptiMEM+0.1% FBS. Each substrate was diluted to 100 uM into Renilla Glo Luciferase assay buffer (Promega Corporation). The 10× enzyme serial dilutions were then combined with the substrate dilutions, 50 ul mixed with 50 ul compound, and incubated for 1 minute at room temperature. Light output for each compound was measured on a GLOMAX®-Multi+ luminometer.

NANOLUC® Luciferase [3] = target: T1, NANOLUC® Luciferase; experiment: Spectral measurements in various buffers with NANOLUC luciferase (Example 10); details: for shift of the NanoLuc luciferase spectral properties: FIGS. 3A-3C and 4A-4D; for NanoGlo (spectral peak, Table 4) / OptiMEM (spectral peak, Table 4) / High / Low / Peak / Width: NanoLuc; for NanoGlo (spectral peak, Table 4): NanoGlo buffer; for High / Low / Peak / Width: emission spectrum
Procedure: (§2) Each compound to be screened was diluted to a concentration of 100 uM (50 uM final concentration) in Renilla Glo Luciferase Assay buffer (Promega Corporation), NANO-GLO Luciferase Assay Buffer (Promega Corporation), or 20 uM (10 uM final) in OptiMEM+0.1% FBS. NANOLUC® luciferase and Renilla luciferase were serially diluted to 4, 40, and 400 ng/ml in OptiMEM+0.1% FBS. 50 ul of each compound dilution was mixed with 50 ul enzyme dilution and incubated for 1 minute at room temperature. Autoluminescence spectra of AS-353 was measured by adding 20 uM of substrate to OptiMEM+20% FBS and then 50 ul of this dilution was combined with 50 ul of OptiMEM+0.1% FBS. Spectral measurements were measured using a Tecan M-1000 luminometer. ([…]).

Renilla luciferase [4] = target: T2, Renilla luciferase (Renilla reniformis, UniProt P27652); experiment: Enzyme titration with Renilla luciferase (Example 9B); details: FIG. 2B
T2 sequence (P27652 1-311): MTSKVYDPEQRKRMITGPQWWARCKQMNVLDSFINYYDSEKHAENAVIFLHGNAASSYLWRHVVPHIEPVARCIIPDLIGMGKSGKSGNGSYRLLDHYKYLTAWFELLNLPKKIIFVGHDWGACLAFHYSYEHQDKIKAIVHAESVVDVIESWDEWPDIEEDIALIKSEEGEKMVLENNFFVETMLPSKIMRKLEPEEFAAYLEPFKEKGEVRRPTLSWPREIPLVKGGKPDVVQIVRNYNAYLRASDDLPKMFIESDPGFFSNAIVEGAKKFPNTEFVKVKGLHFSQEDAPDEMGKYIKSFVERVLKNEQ
Procedure: as §1

Renilla luciferase [5] = target: T2, Renilla luciferase; experiment: Spectral measurements in various buffers with Renilla luciferase (Example 10); parameters: Low / High / Width: unit not given here
Procedure: as §2

[6] = substrate: O=c1c(Cc2ccco2)nc2c(Cc3ccccc3)[nH]c(-c3ccccc3)cn1-2; experiment: Km and Vmax substrate titration with Renilla luciferase (Example 8); details: other: Renilla luciferase 4 ng/ml; Renilla Glo buffer; Michaelis-Menten fit
Procedure: Each compound to be screened was diluted to a concentration of 100 uM in Renilla Glo Luciferase Assay buffer (Promega Corporation) and then further diluted to 2×serial dilution in Renilla Glo Luciferase Assay Buffer. NANOLUC® luciferase and Renilla luciferase were diluted to a concentration of 4 ng/ml in OptiMEM+0.1% FBS. 50 ul of each compound dilution was then mixed with 50 ul of each enzyme dilution and incubated for 1 minute at room temperature. Light output for each compound was measured on a GLOMAX®-Multi+ luminometer. Km and Vmax were calculated for each enzyme/substrate combination using a GraphPad Prism Michaelis-Menten non-linear fit (FIGS. 1A-ID).

[7] = emission spectrum, Renilla/RenillaGlo

T1 sequence (Q9GV45 28-196 with tags or gaps with the stated changes limits assumed): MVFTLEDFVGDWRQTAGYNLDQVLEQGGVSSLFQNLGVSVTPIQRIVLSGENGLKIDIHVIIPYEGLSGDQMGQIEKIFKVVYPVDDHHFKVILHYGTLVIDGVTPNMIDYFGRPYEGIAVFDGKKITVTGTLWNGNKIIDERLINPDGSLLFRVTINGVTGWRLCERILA

Molecule: N#Cc1ccc(-c2[nH]c(-c3cccs3)cn3c(=O)c(Cc4ccco4)nc2-3)s1 [AS-287, 5-(2-(furan-2-ylmethyl)-3-oxo-6-(thiophen-2-yl)-3,7-dihydroimidazo[1,2-a]pyrazin-8-yl)thiophene-2-carbonitrile]
- λmax, nm (Autolum) (NANOLUC® Luciferase [1]): 556 (Autolum) nm

Molecule: N#Cc1ccc(-c2[nH]c3ccccc3n3c(=O)c(Cc4ccco4)nc2-3)s1 [AS-293, 5-(2-(furan-2-ylmethyl)-1-oxo-1,5-dihydroimidazo[1,2-a]quinoxalin-4-yl)thiophene-2-carbonitrile]
- λmax, nm (Autolum) (NANOLUC® Luciferase [1]): 596 (Autolum) nm

Molecule: O=c1c(Cc2ccco2)nc2c(-c3ccnc(F)c3)[nH]c(-c3ccnc(F)c3)cn1-2 [AS-295, 26,8-bis(2-fluoropyridin-4-yl)-2-(furan-2-ylmethyl)imidazo[1,2-a]pyrazin-3(7H)-one]
- λmax, nm (Autolum) (NANOLUC® Luciferase [1]): 520 (Autolum) nm

Molecule: N#Cc1ccc(-c2[nH]c(-c3ccc(O)cc3)cn3c(=O)c(Cc4ccco4)nc2-3)s1 [AS-353, 5-(2-(furan-2-ylmethyl)-6-(4-hydroxyphenyl)-3-oxo-3,7-dihydroimidazo[1,2-a]pyrazin-8-yl)thiophene-2-carbonitrile]
- lower RLU values with NanoLuc compared to AS-360 (NANOLUC® Luciferase [2]; substrate 100 uM): ~100 ×
- shift of the NanoLuc luciferase spectral properties (NANOLUC® Luciferase [3]): shifted the NanoLuc® luciferase spectral properties to red
- NanoGlo (spectral peak, Table 4) (NANOLUC® Luciferase [3]): 592
- OptiMEM (spectral peak, Table 4) (NANOLUC® Luciferase [3]): 583
- High (NANOLUC® Luciferase [3]; NanoGlo Buffer): 652
- Low (NANOLUC® Luciferase [3]; NanoGlo Buffer): 550
- Peak (NANOLUC® Luciferase [3]; NanoGlo Buffer): 592
- Width (NANOLUC® Luciferase [3]; NanoGlo Buffer): 102
- High (NANOLUC® Luciferase [3]; OptiMEM + 0.1% FBS): 637
- Low (NANOLUC® Luciferase [3]; OptiMEM + 0.1% FBS): 544
- Peak (NANOLUC® Luciferase [3]; OptiMEM + 0.1% FBS): 583
- Width (NANOLUC® Luciferase [3]; OptiMEM + 0.1% FBS): 93
- enzyme dependent luminescence with Renilla Luciferase (Renilla luciferase [4]): only at the highest enzyme concentration

Molecule: O=c1c(Cc2ccco2)nc2c(-c3ccnc4ccccc34)[nH]c(-c3ccc(O)cc3)cn1-2 [AS-360, 2-(furan-2-ylmethyl)-6-(4-hydroxyphenyl)-8-(quinolin-4-yl)imidazo[1,2-a]pyrazin-3(7H)-one]
- luminescence rank in the panel tested (NANOLUC® Luciferase [2]; NanoLuc luciferase): brightest luminescence in the panel tested
- brighter than both Renilla and NanoLuc luciferase with AS-361 (NANOLUC® Luciferase [2]; NanoLuc luciferase, substrate 100 uM): ~30 ×
- shift of the NanoLuc luciferase spectral properties (NANOLUC® Luciferase [3]): shifted the NanoLuc® luciferase spectral properties to red
- NanoGlo (spectral peak, Table 4) (NANOLUC® Luciferase [3]): 589
- OptiMEM (spectral peak, Table 4) (NANOLUC® Luciferase [3]): 583
- High (NANOLUC® Luciferase [3]; NanoGlo Buffer): 647
- Low (NANOLUC® Luciferase [3]; NanoGlo Buffer): 538
- Peak (NANOLUC® Luciferase [3]; NanoGlo Buffer): 589
- Width (NANOLUC® Luciferase [3]; NanoGlo Buffer): 109
- High (NANOLUC® Luciferase [3]; OptiMEM + 0.1% FBS): 646
- Low (NANOLUC® Luciferase [3]; OptiMEM + 0.1% FBS): 532
- Peak (NANOLUC® Luciferase [3]; OptiMEM + 0.1% FBS): 583
- Width (NANOLUC® Luciferase [3]; OptiMEM + 0.1% FBS): 114
- RenillaGlo (spectral peak, Table 4) (Renilla luciferase [5]; Renilla, RenillaGlo buffer): 487
- High (Renilla luciferase [5]; [7]): 553
- Low (Renilla luciferase [5]; [7]): 451
- Peak (Renilla luciferase [5]; [7]): 487
- Width (Renilla luciferase [5]; [7]): 102

B1: Renilla luciferase (Renilla reniformis) (protein)
chain: MTSKVYDPEQRKRMITGPQWWARCKQMNVLDSFINYYDSEKHAENAVIFLHGNAASSYLWRHVVPHIEPVARCIIPDLIGMGKSGKSGNGSYRLLDHYKYLTAWFELLNLPKKIIFVGHDWGACLAFHYSYEHQDKIKAIVHAESVVDVIESWDEWPDIEEDIALIKSEEGEKMVLENNFFVETMLPSKIMRKLEPEEFAAYLEPFKEKGEVRRPTLSWPREIPLVKGGKPDVVQIVRNYNAYLRASDDLPKMFIESDPGFFSNAIVEGAKKFPNTEFVKVKGLHFSQEDAPDEMGKYIKSFVERVLKNEQ
- Km [6]: 10.6 µM
